Experimental data from patent US20090233881A1, “COMPOUNDS HAVING ANTI-CANCER PROPERTIES” (Vital Health Sciences Pty. Ltd, priority 2005, published 2009).
Several values for one entry are separate records, joined by “and”; a condition that tells them apart may be missing. Equal values may be shown once.

Columns and labels:
[1] = system: MCF-7 breast cancer cells; assay: MCF-7 breast cancer cell line proliferation assay (MTS); format: cell-based, human; details: MCF-7, 72 hours, no E, concentration 1
[2] = system: MCF-7 breast cancer cells; assay: as above; format: cell-based, human; details: for activity on MCF-7 proliferation (MTS; quantity not given): MCF-7, 72 hours, no E
Description: MCF-7 breast cancer cell growth conditions: Cells were grown in 75 cm^2 plastic tissue cell flasks as monolayer in Dulbecco's Modified Eagle Medium (DMEM), supplemented with 10% FBS in a humidified atmosphere of 5% CO2 in 95% air at 37° C. Cells were sub-cultured at bi-weekly intervals by suspension with 0.06% trypsin/0.02% EDTA (pH 7.3).
MCF-7 breast cancer cell line proliferation assays (MITS Assays): Cells were trypsinised (as performed during sub-culturing) in DMEM, supplemented with 10% FBS. Cells were re-suspended to a cell count of 10,000 cells/ml, with the use of a haemocytometer. Cells were seeded at 1,000 cells/well or by the addition of 100 μl of the cell suspension into 96-well cell culture plates. The cells were left overnight and then were synchronised (by serum starving for 24 hours), prior to the start of experiments.
After the cells were synchronised the cells were treated with the appropriate concentrations of the treatments, prepared in 100% ethanol (2, 5, 10, 15, 20, 30 & 50 μg/ml), they were added to RPMI medium 1640 supplemented with 10% dextran-charcoal treated FCS (DCFBS). […] After 72 hours the plates are incubated with MTS reagent (as described in Example 1) for 1 hr. The plate was read in a spectrophotometer at 490 nm. There were 8 replicates for each compound tested (at the various concentrations shown below).
Treatment abbreviations: GT=gamma-tocopherol; GTP=gamma-tocopheryl phosphate; GT2P=gamma-di-tocopheryl phosphate, GTPM=gamma-tocopheryl phosphate mixture (combination of GTP and GT2P).

[3] = system: DU-145 prostate cancer cells; assay: DU-145 cell growth assay (Coulter cell counting); format: cell-based; details: DU-145, 12 days; for Total viable cells/well: single well
Description: Culture of stock cells. DU-145 prostate cancer cells were purchased from American Type Culture Collection (Manassas, Va., USA). Stock cells were grown in Dulbecco's Modified Eagle Medium (DMEM) (Gibco BRL, Grand Island N.Y.) supplemented with 5% FBS (Fetal Bovine Serum, Gibco BRL, Grand Island N.Y.) in a humidified atmosphere of 5% CO2 in air at 37° C. Cells were subcultured every 1-2 times a week.
Cell growth assay. Cells were trypsinized from the stock plates by treatment with trypsin/versene, added to an equal volume of phenol red-free RPMI-1640 (Gibco BRL, Grand Island N.Y.) supplemented with 5% dextran-charcoal treated fetal calf serum (DCFCS). Cells were resuspended to a cell count of 0.1×10^5 cells/ml with the use of a haemocytometer and plated in monolayer in 0.5 ml aliquots into 24-well plastic culture dishes (Costar, Corning USA). After 24 hours, cells were treated with appropriate concentrations (see table) of γ-tocopheryl phosphate mixture (γ-TP) (Vital Health) and Lycopene (Sigma) or combinations of Lycopene and γ-TP diluted in phenol red-free RPMI medium 1640 supplemented with 5% DCFCS. The culture medium was changed every 3-4 days. The combination treatment contained lycopene and γ-TP in a 1:1 ratio by molecular weight/mass with lycopene varying from 5 ug/ml-40 ug/ml.
Cell counting. The cells were washed twice with 0.9% NaCl to remove non-adherent dead cells and were then lysed in 0.5 ml 2.5 mM Hepes buffer/[…] MgCl2 plus two drops of zapoglobin II lytic reagent (Beckman Coulter, Coulter Corp USA) for 5-15 minutes. The nuclei released were suspended in isoton III (Beckman Coulter, Coulter Corp, USA) and counted on a Coulter counter with particle size set at >5 μm. All cell counts were carried out in triplicate on triplicate well contents. The results were calculated as the average ±standard error. P-values were determined using Independent samples T-Test (by standard software packages SPSS).

| Compound | activity on MCF-7 proliferation (MTS; quantity not given) [1] | activity on MCF-7 proliferation (MTS; quantity not given) ([2]; concentration 2 μg/ml) | activity on MCF-7 proliferation (MTS; quantity not given) ([2]; concentration 5 μg/ml) | activity on MCF-7 proliferation (MTS; quantity not given) ([2]; concentration 10 μg/ml) | activity on MCF-7 proliferation (MTS; quantity not given) ([2]; concentration 15 μg/ml) | activity on MCF-7 proliferation (MTS; quantity not given) ([2]; concentration 20 μg/ml) | activity on MCF-7 proliferation (MTS; quantity not given) ([2]; concentration 30 μg/ml) | activity on MCF-7 proliferation (MTS; quantity not given) ([2]; concentration 50 μg/ml) | relative potency as anti-cancer treatment ([2]; MCF-7) | Average total viable cells/well ([3]; Lycopene 5 ug/ml) | Total viable cells/well ([3]; Lycopene 5 ug/ml) | Average total viable cells/well ([3]; Lycopene 10 ug/ml) | Total viable cells/well ([3]; Lycopene 10 ug/ml) | Average total viable cells/well ([3]; Lycopene 15 ug/ml) | Total viable cells/well ([3]; Lycopene 15 ug/ml) | Average total viable cells/well ([3]; Lycopene 20 ug/ml) | Average total viable cells/well ([3]; Lycopene 25 ug/ml) | Total viable cells/well ([3]; Lycopene 25 ug/ml) | Average total viable cells/well ([3]; Lycopene 30 ug/ml) |
| --- | --- | --- | --- | --- | --- | --- | --- | --- | --- | --- | --- | --- | --- | --- | --- | --- | --- | --- | --- |
| Cc1c(OP(=O)(O)Oc2cc3c(c(C)c2C)O[C@](C)(CCC[C@H](C)CCC[C@H](C)CCCC(C)C)CC3)cc2c(c1C)O[C@](C)(CCC[C@H](C)CCC[C@H](C)CCCC(C)C)CC2 [GT2P, gamma-di-tocopheryl phosphate] | 7.283 | 4.91 | 31.07 | 39.471 | 53.126 | 64.557 | 98.43 | 126.506 | – | – | – | – | – | – | – | – | – | – | – |
| Cc1c(O)cc2c(c1C)O[C@](C)(CCC[C@H](C)CCC[C@H](C)CCCC(C)C)CC2 [GT, gamma-tocopherol] | −6.104 | 15.685 | 36.36 | 68.689 | 56.82 | 79.766 | 82.743 | 62.622 | least potent with limited activity | – | – | – | – | – | – | – | – | – | – |
| Cc1c(OP(=O)(O)O)cc2c(c1C)O[C@](C)(CCC[C@H](C)CCC[C@H](C)CCCC(C)C)CC2 [GTP, gamma-tocopheryl phosphate] | 7.32 | 5.624 | 4.807 | 25.102 | 43.512 | 64.719 | 81.81 | 109.928 | – | – | – | – | – | – | – | – | – | – | – |
| CC(C)=CCC/C(C)=C/C=C/C(C)=C/C=C/C(C)=C/C=C/C=C(C)/C=C/C=C(C)/C=C/C=C(\C)CCC=C(C)C [lycopene] | – | – | – | – | – | – | – | – | – | 4.367 ×10^5 cells/well | 4.392 ×10^5 cells/well and 4.383 ×10^5 cells/well and 4.325 ×10^5 cells/well | 3.712 ×10^5 cells/well | 3.555 ×10^5 cells/well and 3.869 ×10^5 cells/well | 3.716 ×10^5 cells/well | 3.704 ×10^5 cells/well and 3.727 ×10^5 cells/well | 0.276 ×10^5 cells/well | 1.478 ×10^5 cells/well | 1.759 ×10^5 cells/well and 1.196 ×10^5 cells/well | 0.120 ×10^5 cells/well |
